From US12653830B2, “Substituted imidazoquinoxaline compounds and uses thereof” (Impact Therapeutics (Shanghai), Inc, priority 2019, dated 2026)
pIC50: −log10 of the molar value. Like-named read-outs stand apart in the source and are kept apart here.

How the values were obtained:
ATM kinase = target: T1, ATM kinase (Homo sapiens, UniProt Q13315); assay: In vitro ATM kinase assay (Cisbio HTRF, p53 substrate); assay type: biochemical; conditions: 30 μM ATP; for inhibition at 0.0001 µM: Conc. 0.1 nM
T1 construct: purchased Eurofins 14-933
T1 sequence (Q13315 whole entry): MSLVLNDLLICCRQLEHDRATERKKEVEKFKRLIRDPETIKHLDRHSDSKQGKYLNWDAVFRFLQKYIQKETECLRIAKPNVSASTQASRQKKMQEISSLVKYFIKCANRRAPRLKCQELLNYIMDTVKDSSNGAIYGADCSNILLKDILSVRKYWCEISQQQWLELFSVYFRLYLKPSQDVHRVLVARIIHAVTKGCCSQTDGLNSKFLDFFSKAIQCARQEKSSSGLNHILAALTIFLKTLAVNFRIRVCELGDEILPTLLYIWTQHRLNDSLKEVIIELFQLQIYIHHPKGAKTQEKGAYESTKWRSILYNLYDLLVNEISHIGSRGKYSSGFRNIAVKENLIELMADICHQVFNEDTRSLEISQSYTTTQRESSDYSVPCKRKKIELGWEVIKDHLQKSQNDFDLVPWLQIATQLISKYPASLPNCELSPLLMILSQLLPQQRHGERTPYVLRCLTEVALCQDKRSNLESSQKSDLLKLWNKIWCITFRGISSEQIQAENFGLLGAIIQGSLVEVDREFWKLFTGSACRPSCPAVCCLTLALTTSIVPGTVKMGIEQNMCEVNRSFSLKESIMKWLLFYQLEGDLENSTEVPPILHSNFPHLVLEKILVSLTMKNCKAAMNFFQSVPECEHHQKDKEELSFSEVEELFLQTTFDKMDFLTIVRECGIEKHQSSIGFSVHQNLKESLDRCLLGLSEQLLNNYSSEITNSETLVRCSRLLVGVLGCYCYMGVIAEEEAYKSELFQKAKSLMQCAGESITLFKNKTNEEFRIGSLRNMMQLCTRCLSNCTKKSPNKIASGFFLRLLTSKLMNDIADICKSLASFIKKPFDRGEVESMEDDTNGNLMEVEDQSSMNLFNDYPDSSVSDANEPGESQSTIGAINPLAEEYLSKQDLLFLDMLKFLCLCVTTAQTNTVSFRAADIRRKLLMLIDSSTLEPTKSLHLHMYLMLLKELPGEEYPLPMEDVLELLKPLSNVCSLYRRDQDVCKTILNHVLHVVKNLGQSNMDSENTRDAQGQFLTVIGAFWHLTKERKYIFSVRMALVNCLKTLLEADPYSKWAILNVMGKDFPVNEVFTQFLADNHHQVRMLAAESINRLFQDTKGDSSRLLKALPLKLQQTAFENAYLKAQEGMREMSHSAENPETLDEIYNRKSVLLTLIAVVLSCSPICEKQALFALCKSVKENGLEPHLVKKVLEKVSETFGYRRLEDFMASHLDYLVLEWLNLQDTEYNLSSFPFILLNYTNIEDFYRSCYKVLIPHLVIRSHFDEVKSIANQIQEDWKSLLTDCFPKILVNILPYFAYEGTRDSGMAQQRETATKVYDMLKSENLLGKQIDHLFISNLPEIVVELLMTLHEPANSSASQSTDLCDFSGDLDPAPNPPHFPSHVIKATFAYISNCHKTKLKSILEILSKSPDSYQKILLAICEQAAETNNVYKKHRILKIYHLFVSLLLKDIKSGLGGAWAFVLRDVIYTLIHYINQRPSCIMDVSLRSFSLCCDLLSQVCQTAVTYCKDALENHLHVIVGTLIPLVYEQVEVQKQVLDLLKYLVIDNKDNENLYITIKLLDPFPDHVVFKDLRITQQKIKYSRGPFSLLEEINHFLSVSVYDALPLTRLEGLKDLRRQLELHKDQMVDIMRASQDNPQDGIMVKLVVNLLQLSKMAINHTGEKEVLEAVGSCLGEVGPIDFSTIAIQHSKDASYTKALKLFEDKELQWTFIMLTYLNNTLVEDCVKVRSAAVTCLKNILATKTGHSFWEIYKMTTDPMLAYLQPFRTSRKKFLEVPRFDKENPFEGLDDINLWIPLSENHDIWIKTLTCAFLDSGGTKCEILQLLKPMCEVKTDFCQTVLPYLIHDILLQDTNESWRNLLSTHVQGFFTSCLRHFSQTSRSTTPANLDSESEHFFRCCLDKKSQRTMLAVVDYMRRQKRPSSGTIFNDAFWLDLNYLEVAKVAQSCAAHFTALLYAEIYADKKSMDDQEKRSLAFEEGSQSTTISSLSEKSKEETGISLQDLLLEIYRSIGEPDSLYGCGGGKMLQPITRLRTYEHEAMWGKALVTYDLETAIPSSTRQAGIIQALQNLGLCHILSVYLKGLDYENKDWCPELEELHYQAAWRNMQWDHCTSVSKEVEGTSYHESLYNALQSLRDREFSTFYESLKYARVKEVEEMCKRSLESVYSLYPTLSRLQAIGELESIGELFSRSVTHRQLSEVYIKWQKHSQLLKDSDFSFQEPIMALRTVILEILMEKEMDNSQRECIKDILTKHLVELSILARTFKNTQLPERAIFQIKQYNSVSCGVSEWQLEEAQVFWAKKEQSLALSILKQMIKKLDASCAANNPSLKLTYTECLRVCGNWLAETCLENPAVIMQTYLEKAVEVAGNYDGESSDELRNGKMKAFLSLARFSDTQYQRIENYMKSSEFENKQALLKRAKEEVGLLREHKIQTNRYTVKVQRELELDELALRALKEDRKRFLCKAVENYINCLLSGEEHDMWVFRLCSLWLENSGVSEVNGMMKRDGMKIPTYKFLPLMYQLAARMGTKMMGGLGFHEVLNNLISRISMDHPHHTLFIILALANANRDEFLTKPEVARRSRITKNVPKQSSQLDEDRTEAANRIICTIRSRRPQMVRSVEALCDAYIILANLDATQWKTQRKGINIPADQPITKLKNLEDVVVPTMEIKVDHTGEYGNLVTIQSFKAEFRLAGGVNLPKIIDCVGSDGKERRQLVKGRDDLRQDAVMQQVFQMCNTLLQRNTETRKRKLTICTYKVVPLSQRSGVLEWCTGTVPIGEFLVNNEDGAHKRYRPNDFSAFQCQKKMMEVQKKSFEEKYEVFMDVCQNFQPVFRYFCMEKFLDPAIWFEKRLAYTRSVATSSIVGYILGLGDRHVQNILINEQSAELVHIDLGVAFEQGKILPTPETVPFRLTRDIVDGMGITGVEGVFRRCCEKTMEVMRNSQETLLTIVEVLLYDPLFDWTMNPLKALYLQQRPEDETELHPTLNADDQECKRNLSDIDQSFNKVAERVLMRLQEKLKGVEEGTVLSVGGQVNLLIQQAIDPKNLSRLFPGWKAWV
Experimental: Determination of the Inhibitory Effect In Vitro of the Compound of Example 2 and its Analogues on ATM Using In Vitro ATM Kinase Assay
ATM enzymatic activity was measured using Cisbio's HTRF reagent in a 384-well plate (Greiner, #784075). […] The mixtures were centrifuged at 1000 rpm for 1 minute, and reacted in dark for 30 minutes at room temperature. Then, 5 μL of EDTA termination solution (250 mm) was added to terminate the reaction. After 5 μL of detection mixture (Anti-phospho-p53 (ser15)-K (Cisbio, #61P08KAE, 0.084 ng/μL) and Anti-GST-d2 (Cisbio, #61GSTDLA, 5.00 ng/μL)) was finally added to each well, the mixtures were cultured at room temperature over night, and the fluorescence values at 665 nm and 615 nm were measured on Envision 2104. The final concentration of each reagent of the experiment was as follows: 12.5 mM HEPES (pH8.0), 0.5% glycerol, 0.005% Brij-35, 0.625 mM DTT, 0.0125% BSA, 15 nM p53, 0.25 ng/μL ATM, 30 μM ATP, 2.5 mM Mg(AcO)2, 2.5 mM MnCl2, 62.5 mM EDTA, 0.021 ng/μL Anti-phospho-p53, 1.25 ng/μL Anti-GST-d2.
Relative fluorescence ratio was calculated: Ratio665 nm/615 nm−Ratiobackground, and inhibition rate %=(1−(relative fluorescence ratio of test compound well−relative fluorescence ratio of positive control well)/(relative fluorescence ratio of negative control well−relative fluorescence ratio of positive control well))×100 was calculated. Data were analyzed using GraphPad Prism6.0 and fitted using the curve equation: Y=Bottom+(Top−Bottom)/(1+10^((Log IC50−X)*HillSlope)), and IC50 values were calculated.

[1] = test system: human colon cancer cell SW620; assay: MTT proliferation assay in combination with CPT-11, SW620; assay type: cell-based; conditions: medium containing 205 nM CPT-11, 5 days, read-out: IC50, inhibition of proliferation of SW620 combined with CPT-11
Experimental: Determination of the Inhibitory Effect of the Compound of Example 2 and its Analogues in Combination with CPT-11 on the Proliferation of Human Colon Cancer Cell SW620 Using MTT Assay
The human colon cancer cells SW620 were cultured in RPMI 1640 medium with 10% FBS and used at about 90% confluence for experiments. The SW620 cells were digested with trypsinase and centrifuged at 800 rpm for 5 minutes. The supernatant was discarded and the cell pellets were resuspended with fresh medium (RPMI 1640+10% FBS). The cells were seeded into 96-well cell culture plates with appropriate cell density and incubated at 37° C. overnight in a 5% CO2 incubator. […] The first concentration was 1 μM or 0.333 μM, the last concentration was DMSO negative control (0 μM). 5 μL of solutions of each concentration was added to 120 μL of medium (a 25 times dilution) and mixed by shaking. The cells were cultured overnight and the culture medium was replaced with 195 μL/well of fresh medium containing 205 nM CPT-11 and 5 μL/well of medium containing the test compound (the final concentration of DMSO was 1%). The culture plates were returned to incubator and cultured at 37° C., 5% CO2 for 5 days. At the day of experiment, medium was discarded and replaced with 100 μL of fresh serum-free DMEM medium containing MTT (0.5 mg/mL), and the culture was continued. 4 hours later, the medium was discarded and replaced with 100 μL/well of DMSO, the plate was shaken for 10 minutes in dark and the absorbance was measured at the wavelengths of 552 and 690 nm using a multi-function plate reader. Data were analyzed by Graph Pad Prism 6.0. The inhibitory effects of compounds on cell proliferation were plotted based on cell viability vs. the logarithm of compound concentration. Cell viability %=(ODcompound−ODbackground)/(ODDMSO−ODbackground)×100.
Table 3 summarizes the inhibitory effect data (IC50) of some compounds combined with CPT-11 on the proliferation of human colon cancer cell SW620.

[2] = test system: human breast cancer cell MDA-MB-468; assay: MTT proliferation assay, MDA-MB-468; assay type: cell-based; conditions: 7 days, single agent, read-out: IC50, inhibition of proliferation of MDA-MB-468
Experimental: Determination of the Inhibitory Effect of the Compound of Example 2 and its Analogues on the Proliferation of Human Breast Cancer Cell MDA-MB-468 Using MTT Assay
The human breast cancer cells MDA-MB-468 were cultured in RPMI 1640 medium with 10% FBS and used at 90% confluence. The MDA-IVB-468 cells were digested with trypsinase and centrifuged at 800 rpm for 5 minutes. The supernatant was discarded and the cell pellets were resuspended with fresh medium and counted. Cells were seeded to 96-well cell culture plates with appropriate cell density and incubated overnight at 37° C., 5% CO2. […] 5 μL of solutions of each concentration was added to 120 μL of medium (diluted by 25 times) and mixed by shaking. The culture medium of cells cultured overnight was discarded and replaced with 195 μL/well of fresh medium (RPMI 1640+5% FBS) and 5 μL/well of diluted medium containing the test compound of corresponding concentrations (the final concentration of DMSO was 1%), and the culture plate was then returned to 5% CO2 incubator at 37° C. for 7 days (on the fourth day, dressing was changed once and culture was continued). On the day of experiment, culture medium was discarded and replaced with 100 μL/well of fresh serum-free DMEM medium containing MTT (0.5 mg/mL), and the culture was continued. After 4 hours, medium was discarded and replaced with 100 μL/well of DMSO, the plates were shaken for 10 minutes in darkness and the absorbance was measured at the wavelengths of 552 and 693 nm using a multi-function plate reader. Graph Pad Prism 6.0 was used to analyze the data. The inhibitory effects of compounds on cell proliferation were plotted based on cell viability vs. the logarithm of compound concentration. Cell viability %=(ODcompound−ODbackground)/(ODDMSO−ODbackground)×100.
Table 4 summarizes the inhibitory effect data (IC50) of some compounds on the proliferation of human breast cancer cell MDA-MB-468.

[3] = Conc. 1 nM, read-out: Inh % (inhibitory effect on ATM kinase activity)
[4] = Conc. 10 nM, read-out: Inh % (inhibitory effect on ATM kinase activity)
[5] = Homo sapiens, MDA-MB-468, 168 h
[6] = read-out: Inh % (inhibitory effect on ATM kinase activity)

| SMILES | pIC50 [1] | inhibition at 0.01 µM (ATM kinase; [4]) [%] | pIC50 [2, 5] | other results |
| --- | --- | --- | --- | --- |
| CN(C)CCCOc1ccc(-c2ccc3ncc4c(c3c2)n(C2CCOCC2)c(=O)n4C)cn1 [AZD0156, reference compound] | 8.01 | – | – | Inh % (inhibitory effect on ATM kinase activity) (ATM kinase; Conc. 1 nM): 90%; Inh % (inhibitory effect on ATM kinase activity) (ATM kinase; Conc. 10 nM): 95%; Inh % (inhibitory effect on ATM kinase activity) (ATM kinase; Conc. 100 nM): 100%; pIC50 [2]: 8.01 |
| CN(C)CCCOc1ccc(-c2ccc3ncc4cnc(C5CCOCC5)n4c3c2)cc1 [Example 1, N,N-dimethyl-3-(4-(1-(tetrahydro-2H-pyran-4-yl)imidazo[1,5-a]quinoxalin-8-yl)phenoxy)propan-1-amine] | 6.91 | 71 | 6.99 | inhibition at 0.001 µM (ATM kinase; [3]): 25%; inhibition at 0.1 µM (ATM kinase; Conc. 100 nM, read-out: Inh % (inhibitory effect on ATM kinase activity)): 96% |
| Cc1nc(C2CCOCC2)n2c1cnc1ccc(-c3ccc(OCCCN(C)C)nc3)cc12 [Example 2, N,N-dimethyl-3-((5-(3-methyl-1-(tetrahydro-2H-pyran-4-yl)imidazo[1,5-a]quinoxalin-8-yl)pyridin-2-yl)oxy)propan-1-amine] | 7.72 | 96 | 7.73 | inhibition at 0.0001 µM (ATM kinase; [6]): 45%; inhibition at 0.001 µM (ATM kinase; [3]): 59% |
| Cc1nc(C2CCOCC2)n2c1cnc1ccc(-c3ccc(OCCCN(C)C)cc3)cc12 [Example 3, N,N-dimethyl-3-(4-(3-methyl-1-(tetrahydro-2H-pyran-4-yl)imidazo[1,5-a]quinoxalin-8-yl)phenoxy)propan-1-amine] | 7.40 | 98 | 7.54 | – |
| Cc1nc(C2CCOCC2)n2c1cnc1ccc(-c3ccc(OCCCN(C)C)c(F)c3)cc12 [Example 4, N,N-dimethyl-3-(2-fluoro-4-(3-methyl-1-(tetrahydro-2H-pyran-4-yl)imidazo[1,5-a]quinoxalin-8-yl)phenoxy)propan-1-amine] | 7.39 | 97 | 7.41 | – |
| Cc1nc(C2CCOCC2)n2c1cnc1ccc(-c3ccc(OCCCN(C)C)c(C(F)(F)F)c3)cc12 [Example 5, N,N-dimethyl-3-(4-(3-methyl-1-(tetrahydro-2H-pyran-4-yl)imidazo[1,5-a]quinoxalin-8-yl)-2-(trifluoromethyl)phenoxy)propan-1-amine] | 7.71 | 99 | 7.66 | inhibition at 0.0001 µM (ATM kinase; [6]): 47%; inhibition at 0.001 µM (ATM kinase; [3]): 97% |
| Cc1nc(C2CCOCC2)n2c1cnc1ccc(-c3ccc(N4CCC(N(C)C)CC4)c(F)c3)cc12 [Example 6, N,N-dimethyl-1-(2-fluoro-4-(3-methyl-1-(tetrahydro-2H-pyran-4-yl)imidazo[1,5-a]quinoxalin-8-yl)phenyl)piperidin-4-amine] | 7.90 | 99 | 7.94 | inhibition at 0.0001 µM (ATM kinase; [6]): 33%; inhibition at 0.001 µM (ATM kinase; [3]): 93% |
| Cc1nc(N2C[C@@H](C)O[C@@H](C)C2)n2c1cnc1ccc(-c3ccc(OCCc4c[nH]cn4)nc3)cc12 [Example 35, (2S,6R)-4-(8-(6-(2-(1H-imidazol-4-yl)ethoxy)pyridin-3-yl)-3-methylimidazo[1,5-a]quinoxalin-1-yl)-2,6-dimethylmorpholine] | 6.25 | – | 6.38 | – |
| CC(C)c1nc(N2C[C@@H](C)O[C@@H](C)C2)n2c1cnc1ccc(-c3ccc(OCCCN(C)C)nc3)cc12 [Example 42, 3-((5-(1-((2S,6R)-2,6-dimethylmorpholino)-3-isopropylimidazo[1,5-a]quinoxalin-8-yl)pyridin-2-yl)oxy)-N,N-dimethylpropan-1-amine] | 6.07 | – | 6.27 | – |
| C[C@@H]1CN(c2ncc3cnc4ccc(-c5ccc(N6CCC(N(C)C)CC6)nc5)cc4n23)C[C@H](C)O1 [Example 45, 1-(5-(1-((2S,6R)-2,6-dimethylmorpholino)imidazo[1,5-a]quinoxalin-8-yl)pyridin-2-yl)-N,N-dimethylpiperidin-4-amine] | 7.68 | – | 7.73 | – |
| Cc1nc(N2C[C@@H](C)O[C@@H](C)C2)n2c1cnc1ccc(-c3ccc(N(C)CCCN(C)C)nc3)cc12 [Example 47, N^1-(5-(1-((2S,6R)-2,6-dimethylmorpholino)-3-methylimidazo[1,5-a]quinoxalin-8-yl)pyridin-2-yl)-N^1,N^3,N^3-trimethylpropane-1,3-diamine] | 7.75 | – | 6.90 | – |
| Cc1nc(N2C[C@@H](C)O[C@@H](C)C2)n2c1cnc1ccc(-c3ccc(N4CCC(N5CCC5)CC4)nc3)cc12 [Example 52, (2S,6R)-4-(8-(6-(4-(azetidin-1-yl)piperidin-1-yl)pyridin-3-yl)-3-methylimidazo[1,5-a]quinoxalin-1-yl)-2,6-dimethylmorpholine] | 8.26 | – | 8.21 | – |
| Cc1nc(N2C[C@@H](C)O[C@@H](C)C2)n2c1cnc1ccc(-c3ccc(CCN4CCN(C)CC4)nc3)cc12 [Example 60, (2S,6R)-2,6-dimethyl-4-(3-methyl-8-(6-(2-(4-methylpiperazin-1-yl)ethyl)pyridin-3-yl)imidazo[1,5-a]quinoxalin-1-yl)morpholine] | < 6.00 | – | 6.08 | – |
| Cc1nc(N2C[C@@H](C)O[C@@H](C)C2)n2c1cnc1ccc(-c3ccc(OCCCN(C)C)c(F)c3)cc12 [Example 61, 3-(4-(1-((2S,6R)-2,6-dimethylmorpholino)-3-methylimidazo[1,5-a]quinoxalin-8-yl)-2-fluorophenoxy)-N,N-dimethylpropan-1-amine] | 7.66 | – | 7.68 | – |
| Cc1nc(N2C[C@@H](C)O[C@@H](C)C2)n2c1cnc1ccc(-c3ccc(OCCCN(C)C)c(Cl)c3)cc12 [Example 62, 3-(2-chloro-4-(1-((2S,6R)-2,6-dimethylmorpholino)-3-methylimidazo[1,5-a]quinoxalin-8-yl)phenoxy)-N,N-dimethylpropan-1-amine] | 7.37 | – | 7.47 | – |
